Experimental data: patent publication US11318157B2, “6-6 bicyclic aromatic ring substituted nucleoside analogues for use as PRMT5 inhibitors” (Janssen Pharmaceutica NV, priority 2015, dated 2022)
Read-outs that look alike come from different tables or passages of the source.

Legend:
PRMT5-MEP50 enzyme = target: T1, PRMT5-MEP50 enzyme (Homo sapiens, UniProt O14744); assay: In vitro assay 1b: high throughput mass spectrometer assay of SAH formation, 1.25 nM enzyme, 120 min; format: biochemical; details: averaged values; PRMT5-MEP50, 1.25 nM enzyme, 120 min; read-out: pIC50 Assay 1b (converted)
T1 construct: One virus expresses full length human PRMT5 with Flag-tag at N-terminus; Flag (N); purchased Charles River (Argenta); host or cells: insect cells (Sf9), baculovirus co-infection
T1 sequence (O14744 whole entry): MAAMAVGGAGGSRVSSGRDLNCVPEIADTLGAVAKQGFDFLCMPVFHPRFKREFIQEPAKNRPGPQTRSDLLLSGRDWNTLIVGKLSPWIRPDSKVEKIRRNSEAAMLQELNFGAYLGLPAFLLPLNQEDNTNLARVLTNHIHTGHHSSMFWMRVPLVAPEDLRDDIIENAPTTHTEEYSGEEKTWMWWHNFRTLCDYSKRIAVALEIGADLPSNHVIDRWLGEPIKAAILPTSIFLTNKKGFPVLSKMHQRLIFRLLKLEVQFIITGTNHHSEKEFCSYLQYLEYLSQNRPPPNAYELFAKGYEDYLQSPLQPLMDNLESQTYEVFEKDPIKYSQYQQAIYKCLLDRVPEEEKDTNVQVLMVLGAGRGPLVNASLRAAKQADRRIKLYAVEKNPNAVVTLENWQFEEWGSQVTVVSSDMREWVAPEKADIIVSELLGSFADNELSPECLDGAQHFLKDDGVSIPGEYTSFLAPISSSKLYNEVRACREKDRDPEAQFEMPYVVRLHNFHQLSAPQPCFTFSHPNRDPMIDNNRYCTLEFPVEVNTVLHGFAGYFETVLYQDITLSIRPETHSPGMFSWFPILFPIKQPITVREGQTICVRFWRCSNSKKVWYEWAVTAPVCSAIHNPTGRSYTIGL
T1 sequence (Q9BQA1 whole entry partner): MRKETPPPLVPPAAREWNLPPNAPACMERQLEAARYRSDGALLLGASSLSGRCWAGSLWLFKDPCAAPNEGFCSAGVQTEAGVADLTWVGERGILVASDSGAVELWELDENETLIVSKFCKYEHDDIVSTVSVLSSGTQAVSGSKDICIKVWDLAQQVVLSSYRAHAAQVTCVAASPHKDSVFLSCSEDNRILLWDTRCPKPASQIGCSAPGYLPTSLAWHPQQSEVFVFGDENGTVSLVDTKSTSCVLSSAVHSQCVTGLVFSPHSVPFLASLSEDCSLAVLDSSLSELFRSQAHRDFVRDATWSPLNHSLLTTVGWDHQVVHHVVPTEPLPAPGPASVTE
Source text: Experimental Procedures In Vitro Assay (Assay 1a and 1b)
PRMT5-MEP50 enzyme was purchased from Charles River (Argenta). The enzyme complex was produced in insect cells (Sf9) infected simultaneously with two baculoviruses. One virus expresses full length human PRMT5 with Flag-tag at N-terminus, the second virus expresses full length MEP50 with His6-TEV cleavage at N-terminus. The protein was affinity purified using anti-Flag (M2) beads eluted with 3×FLAG peptide, followed by His-Select eluted with 0.5M imidazole. Eluted protein was then dialysed against tris-buffered saline (TBS) (pH 8.0) containing 20% glycerol and 3 mM dithiothreitol (DTT).
Full-length untagged human recombinant histone H2A (residues 1-130, Genbank Accession #NM_021052 MW=14.1 kDa) expressed in E. coli was purchased from Reaction Biology Corporation, Cat #HMT-11-146. Reagents used for making reaction buffer or stopping reaction were purchased including Tris base (Sigma Cat #T-1503), NaCl (Sigma Cat #RGF-3270), MgCl2 (Sigma Cat #M0250), DTTI (Invitrogen Cat #15508-013) and Formic Acid (Riedel deHaen, Cat #33015)
High Throughput Mass Spectrometer Assay
PRMT5 catalyzes the sequential methylations of the terminal nitrogen atoms on the guanidine groups of arginine residues within proteins using co-substrate S-adenosyl-L-methionine (AdoMet, SAM), forming mono-methyl (MMA), symmetric-dimethyl arginine (sDMA) and S-adenosyl-L-homocysteine (AdoHcy, SAH). The enzyme activity was determined by following the product SAH formation using high throughput mass spectrometry (Agilent Rapidfire 300 System coupled to a Sciex 4000 series QTrap® triple-quad MS/MS). The reaction buffer was 20 mM Tris-HCl, pH 8.5, 50 mM NaCl, 5 mM MgCl2 and 1 mM DTT. The reaction activity was stopped using 1% formic acid (final concentration).
The IC50 Studies were performed using eleven point dosing series made for each compound by serially diluted 1:2 in dimethyl sulfoxide (DMSO), with point 12 being a DMSO control. Compounds were first spotted to plates, and followed by addition of 2 μM SAM and 0.6 μM H2A (histone H2A) solution mixture. The same volume of enzyme solution was added to initiate the enzymatic reactions. The final concentrations of the reaction are at 1 μM SAM, 0.3 μM H2A and 10 nM enzyme (assay 1a) or 1.25 nM enzyme (assay 1b). The reaction was incubated at 30° C. for 60 minutes (min) when 10 nM enzyme was used and for 120 min when 1.25 nM enzyme was used. Subsequently, the reaction was quenched by addition of formic acid to a final concentration of 1%. The inhibitions of SAH formation in the presence of compounds were calculated as a percentage of the control relative to the uninhibited reaction as a function of inhibitor concentration. The data were fit as follows: Y=Bottom+(Top−Bottom)/(1+10^((log IC50−X)*h))
where IC50 is the inhibitor concentration (same unit as X) at 50% inhibition and h is the Hill slope. Y is percent of inhibition, X is log of compound concentration. Bottom and Top are the plateaus in same units as Y.

[1] = tested on: nuclear symmetric Arginine dimethylation in A549 cells; assay: PD assay (assay 2): inhibition of nuclear symmetric Arginine dimethylation (SYM10 immunohistochemistry), 48 h; format: cell-based; details: Homo sapiens
Experimental: Experimental Procedure PD Assay (Assay 2)
A549 cells (ATCC, Cat #CCL-185) were cultured in Dulbecco's Modified Eagle's Medium (DMEM) (Sigma, Cat #D5796), supplemented with 10% Fetal Calf Serum (FCS) (HyClone™, Cat #SV30160.03), 100 mM Sodium Pyruvate (Sigma, Cat #S8636), 200 mM L-Glutamine (Sigma, Cat #G7513) and 50 mg/mL gentamycin (Gibco, Cat #15750-037).
Reagents used for buffers were purchased: Dulbecco's phosphate buffered saline (DPBS) without Ca/Mg (Sigma, Cat #D8537), phosphate buffered saline (PBS) 10× (Roche, Cat #11 666 789 001), Formalin solution 10% (Sigma, HT50-1-128-4L), Methanol 100% (Sigma, Cat #32213-2.5L), Triton X-100 (Acros, Cat #215680010), Bovine Serum Albumin (BSA) (Sigma, Cat #A2153), Alexa fluor 488 goat anti-rabbit antibody (Life Technologies, Cat #A11034), HCS CellMask Deep Red Stain (Life Technologies, Cat #H32721), Hoechst Stain (Life Technologies, Cat #33258), Anti-dimethyl-Arginine, sym (SYM10) antibody (Millipore, 07-412).
Immunohistochemistry Procedure
Cells were plated at 400 cells/40 μL/well in 384 well black μplates clear bottom (Perkin Elmer) and overnight incubated at 37° C., 5% CO2. […] 80 nL of the respective dilution of the compounds was added using the Labcyte POD 810 (Labcyte) reaching a final DMSO concentration of 0.2% in cell culture. After an incubation period of 48 h at 37° C. and 5% CO2, cells were fixed in 10% formalin solution for 15 min at room temperature and 20 min in ice-cold methanol, after which they were washed 3× in DPBS. Subsequently, the cells were blocked for 1 h in blocking buffer (PBS+1% BSA and 0.5% Triton X-100) and incubated overnight at 4° C. with the SYM10 antibody diluted 1/2000 in blocking buffer. The cells were washed 3× with washing buffer (PBS+0.1% Triton X-100) and incubated with the Alexa fluor 488 goat anti-rabbit antibody diluted 1/200 in blocking buffer for 1 h at room temperature. Subsequently, they were washed 3× with washing buffer and incubated for 30 min at room temperature with PBS containing a 1/5000 dilution of Hoechst Stain and a 1/5000 dilution of the HCS CellMask Deep Red Stain. After a final wash with PBS, the plates were imaged using the 10×W lens of the Opera® system (Perkin Elmer Life Sciences) using following settings (values in nm):
In the above equations, the following variable names are used: […]
In the above equations, the following controls were used for normalization: […]
Low control: minimum level of symmetrically dimethylated Arginines (cells treated with reference compound at 10 μM).
High control: maximum level of symmetrically dimethylated Arginines (DMSO treated cells).
IC50 and pIC50 (−log IC50) values were calculated using the appropriate software.
The pIC50 values in the Table below are averaged values (Co. No. means compound number; n.d. means not determined).

[2] = A549, averaged values, PD assay, A549 cells, symmetric Arginine dimethylation, read-out: pIC50 Assay 2 (converted)

SMILES	IC50 (PRMT5-MEP50 enzyme) [nM]	IC50 [1, 2] [nM]	IC50 ([1]; A549, read-out: pIC50 Assay 2 (converted)) [nM]
Nc1nc2cc(CC[C@H]3C[C@@H](n4ccc5c(N)ncnc54)[C@H](O)[C@@H]3O)ccc2cc1C(F)(F)F [Compound 154]	0.316	2.51	–
Nc1ncnc2c1ccn2[C@@H]1C[C@H](OCc2ccc3ccc(NCC4CC4)nc3c2)[C@@H](O)[C@H]1O [Compound 160]	0.794	15.8	–
COc1ncnc2c1ccn2[C@@H]1C[C@H](CCc2ccc3ccc(NC4CC4)nc3c2)[C@@H](O)[C@H]1O [Compound 181]	1.26	39.8	–
Nc1ncnc2c1ccn2[C@@H]1O[C@H](COc2ccc3cccnc3c2)[C@@H](O)[C@H]1O [Compound 1]	12.6	79.4	–
Nc1nc2cc(CC[C@H]3C[C@@H](n4ccc5c(NC6CC6)ncnc54)[C@H](O)[C@@H]3O)ccc2cc1Cl [Compound 197]	0.631	31.6	–
COc1ncnc2c1ccn2[C@@H]1C[C@H](CCc2ccc3ccc(NCC(F)(F)F)nc3c2)[C@@H](O)[C@H]1O [Compound 188]	39.8	631	–
CNc1ncnc2c1ccn2[C@@H]1C[C@H](CCc2ccc3ccc(NC(C)C)nc3c2)[C@@H](O)[C@H]1O [Compound 206]	1.58	25.1	–
Nc1nc2cc(CC[C@H]3O[C@@H](n4ccc5c(N)ncnc54)[C@H](O)[C@@H]3O)ccc2cc1Cl [Compound 158]	0.126	3.16	–
Nc1ncnc2c1ccn2[C@@H]1C[C@H](CCc2ccc3cc(Br)c(NC4CC4)nc3c2)[C@@H](O)[C@H]1O [Compound 153]	200	31.6	–
CNc1ncnc2c1ccn2[C@@H]1C[C@H](CCc2ccc3cc(C(F)(F)F)c(N)nc3c2)[C@@H](O)[C@H]1O [Compound 201]	1.58	39.8	–
CNc1ncnc2c1ccn2[C@@H]1C[C@H](CCc2ccc3cc(Cl)c(N)nc3c2)[C@@H](O)[C@H]1O [Compound 194]	0.631	1.58	–
COc1ncnc2c1ccn2[C@@H]1O[C@H](CCc2ccc3cc(Cl)c(N)nc3c2)[C@@H](O)[C@H]1O [Compound 199]	39.8	251	–
COc1ncnc2c1ccn2[C@@H]1C[C@H](CCc2ccc3cc(F)c(N)nc3c2)[C@@H](O)[C@H]1O [Compound 204]	3.98	63.1	–
Nc1ccc2ccc(CC[C@H]3C[C@@H](n4ccc5c(N)ncnc54)[C@H](O)[C@@H]3O)cc2n1 [Compound 76]	–	–	0.158
Nc1nc2cc(CC[C@H]3C[C@@H](n4ccc5c(N)ncnc54)[C@H](O)[C@@H]3O)ccc2cc1Br [Compound 80]	–	0.251	–
CNc1ncnc2c1ccn2[C@@H]1C[C@H](COc2ccc3cc(Cl)c(N)nc3c2)[C@@H](O)[C@H]1O [Compound 227]	1.26	–	–
CNc1ncnc2c1ccn2[C@@H]1C[C@H](COc2ccc3ccc(NCC4CC4)nc3c2)[C@@H](O)[C@H]1O [Compound 225]	6.31	–	–
Nc1ncnc2c1ccn2[C@@H]1C[C@H](COc2ccc3ccc(NCC4CC4)nc3c2)[C@@H](O)[C@H]1O [Compound 224]	< 0.2	–	–
COc1ncnc2c1ccn2[C@@H]1C[C@H](COc2ccc3cc(Cl)c(N)nc3c2)[C@@H](O)[C@H]1O [Compound 228]	5.01	–	–

Continued, in another order:

IC50 (PRMT5-MEP50 enzyme) [nM]	IC50 [1, 2] [nM]	SMILES	IC50 ([1]; A549, read-out: pIC50 Assay 2 (converted)) [nM]
0.2	–	Nc1nc2cc(CC[C@H]3O[C@@H](n4ccc5c(N)ncnc54)[C@H](O)[C@@H]3O)ccc2cc1Br [Compound 235]	–
0.794	1.26	CNc1ncnc2c1ccn2[C@@H]1C[C@H](CCc2ccc3cc(Br)c(N)nc3c2)[C@@H](O)[C@H]1O [Compound 238]	–
50.1	158	Nc1nc2cc(CC[C@H]3C[C@@H](n4ccc5ncccc54)[C@H](O)[C@@H]3O)ccc2cc1Cl [Compound 248]	–
31.6	200	Nc1nc2cc(CC[C@H]3C[C@@H](n4ccc5nccnc54)[C@H](O)[C@@H]3O)ccc2cc1Cl [Compound 250]	–
39.8	–	CNc1ncnc2c1ccn2[C@@H]1O[C@H](CCc2ccc3cc(F)c(N)nc3c2)[C@@H](O)[C@H]1O [Compound 229]	–
3.98	–	CNc1ncnc2c1ccn2[C@@H]1O[C@H](COc2ccc3cc(Br)c(N)nc3c2)[C@@H](O)[C@H]1O [Compound 232]	–
< 0.2	< 1.17	Nc1nc2cc(CC[C@H]3C[C@@H](n4ccc5c(N)nc(Cl)nc54)[C@H](O)[C@@H]3O)ccc2cc1Cl [Compound 240]	–
794	–	Nc1nc2cc(OC[C@H]3O[C@@H](n4ccc5c(O)ncnc54)[C@H](O)[C@@H]3O)ccc2cc1Br [Compound 234]	–
631	–	COc1ncnc2c1ccn2[C@@H]1O[C@H](CCc2ccc3cc(F)c(N)nc3c2)[C@@H](O)[C@H]1O [Compound 230]	–
3.16	–	Nc1nc2cc(CC[C@H]3O[C@@H](n4ccc5c(N)ncnc54)[C@H](O)[C@@H]3O)ccc2cc1C(F)(F)F [Compound 244]	–
0.794	–	Nc1nc2cc(CC[C@H]3C[C@@H](n4ccc5cnccc54)[C@H](O)[C@@H]3O)ccc2cc1Cl [Compound 247]	–
< 0.2	–	Nc1nc2cc(OC[C@H]3C[C@@H](n4ccc5c(N)ncnc54)[C@H](O)[C@@H]3O)ccc2cc1Br [Compound 236]	–
< 0.2	–	Nc1nc2cc(OC[C@H]3O[C@@H](n4ccc5c(N)ncnc54)[C@H](O)[C@@H]3O)ccc2cc1Br [Compound 233]	–
0.631	–	Nc1nc2cc(CC[C@H]3O[C@@H](n4ccc5c(N)ncnc54)[C@H](O)[C@@H]3O)ccc2cc1F [Compound 231]	–
0.631	–	Nc1nc2cc(CC[C@H]3C[C@@H](n4ccc5c(N)nccc54)[C@H](O)[C@@H]3O)ccc2cc1Br [Compound 252]	–
